Data taken from patent US20090176835A1, “PHARMACEUTICAL COMPOSITION FOR SUPPRESSION OF THE EXPRESSION OF ATP CITRATE LYASE AND USE THEREOF” (Ajinomoto Co., Inc., priority 2002, published 2009).

Columns and labels:
[1] = tested on: rat ACL gene (GenBank ID: J05210); test: Liver ACL expression analyzed with DNA chips, Experiment 2 (GK rats); format: in vivo
Method: In Experiment 1, methylcellulose or 50 mg/kg of nateglinide suspended in methylcellulose was orally administered to normal Wistar rats fasted overnight. One hour after the administration, the liver was taken from each rat and freezed. The total RNA was extracted with RNeasy kit (Qiagen Co. Ltd). Biotinylated cRNA probe was prepared by a standard method and then it was hybridized to rat genome U34 array (Affymetrix Co. Ltd). The amount of cRNA hybridized to rat ACL gene (GenBank ID: J05210) was analyzed with Microarray Suite 5.0 software (Affymetrix Co. Ltd). Also in Experiment 2, 1 g/kg of glucose, 50 mg/kg of nateglinide or both of glucose and nateglinide were orally administered to Wistar rats and GK rats fasted overnight. One hour after the administration, the liver was taken from each rat and the expression of ACL level was analyzed with DNA chips in the same manner as that in Experiment 1.

[2] = cited from earlier work
[3] = Insulin level in GK rat portal vein after nateglinide; format: in vivo; details: after administration
[4] = after 30 days' administration; patients without liver diseases (Drugs R&D 2(2):123 (1999)); cited from earlier work
[5] = tested on: rat ACL gene (GenBank ID: J05210); test: Liver ACL expression analyzed with DNA chips, Experiment 1 (normal Wistar rats); format: in vivo
Method: The effect of nateglinide on the expression of liver ACL was analyzed with DNA chips. In Experiment 1, methylcellulose or 50 mg/kg of nateglinide suspended in methylcellulose was orally administered to normal Wistar rats fasted overnight. One hour after the administration, the liver was taken from each rat and freezed. The total RNA was extracted with RNeasy kit (Qiagen Co. Ltd). Biotinylated cRNA probe was prepared by a standard method and then it was hybridized to rat genome U34 array (Affymetrix Co. Ltd). The amount of cRNA hybridized to rat ACL gene (GenBank ID: J05210) was analyzed with Microarray Suite 5.0 software (Affymetrix Co. Ltd).

[6] = Blood GOT and GPT as indices of liver function in patients with type 2 diabetes, 12 weeks oral nateglinide; format: in vivo, human; details: for GOT, change (0 to 12 weeks) / GPT, change (0 to 12 weeks): decrease, p<0.05
Method: Nateglinide was orally administered to patients with type 2 diabetes three times a day in a dose of usually […] before meals for 12 weeks. Blood GOT and GPT concentrations were determined as indices of the liver function in 0 week and 12th week. In analysis 1, the results obtained by the oral administration of nateglinide to 53 patients with type 2 diabetes each having fatty liver for 12 weeks were analyzed. In analysis 2, the results obtained by the oral administration of nateglinide to 16 cases of type-2 diabetes having liver disorders (GOT, GPT≧51 IU/L) were analyzed.

[7] = analysis 1: 53 type 2 diabetes patients with fatty liver
[8] = analysis 1: type 2 diabetes patients with fatty liver, 12 weeks
[9] = analysis 2: 16 cases of type-2 diabetes with liver disorders
[10] = analysis 2: type-2 diabetes with liver disorders, 12 weeks

CC(C)[C@H]1CC[C@H](C(=O)N[C@H](Cc2ccccc2)C(=O)O)CC1 [nateglinide, (−)-N-(trans-4-isopropylcyclohexanecarbonyl)-D-phenylalanine]
Expression level of liver ACL (cRNA hybridized to rat ACL gene), Analysis 1 ([1]; Experiment 2 group 5, GK rats fasted overnight, 50 mg/kg oral with 1 g/kg glucose, liver 1 h after, GK controls 139.6): 66.4 | Expression level of liver ACL (cRNA hybridized to rat ACL gene), Analysis 2 ([1]; Experiment 2 group 5, GK rats fasted overnight, 50 mg/kg oral with 1 g/kg glucose, liver 1 h after, GK controls 452.5 / 416.7): 189.9 | Elevated liver ACL expression level ([1]; GK rats, Experiment 2, groups 3, 4 vs 5): significantly suppressed and returned to the normal level | Effect of hepatic cirrhosis on pharmacokinetics ([2]; J. Clin. Pharmacol. 40:634 (2000), Drugs 60(3):607 (2000)): no significant effect | Increase of total exposure ([2]; subjects with mild hepatic impairment (Am J Health-Syst Pharm 58, 285 (2001))): 30% | Insulin level in portal vein [3]: transient increase | Alterations in liver function [4]: no significant alterations | Expression level of liver ACL (cRNA hybridized to rat ACL gene), Analysis 1 ([5]; Wistar rats fasted overnight, 50 mg/kg oral, no glucose, liver 1 h after, methylcellulose control 96.2): 144.4 | Expression level of liver ACL (cRNA hybridized to rat ACL gene), Analysis 2 ([5]; Wistar rats fasted overnight, 50 mg/kg oral, no glucose, liver 1 h after, methylcellulose control 459.3): 543.6 | Suppression of liver ACL mRNA level ([5]; normal Wistar rats): no significant suppression | GOT value after administration ([6]; 5 cases with fatty liver and NASH-like liver troubles (GOT, GPT≧51 IU/L, GPT>GOT), reduced from 138.6±56.0): 83.6±41.5 IU/L | GPT value after administration ([6]; 5 cases with fatty liver and NASH-like liver troubles (GOT, GPT≧51 IU/L, GPT>GOT), reduced from 242.6±112.8): 57.8±59.2 IU/L | GOT, 12th week ([6]; analysis 1: 53 type 2 diabetes patients with fatty liver, 12 weeks oral, 0 week 58.4 ± 34.4): 33.8 ± 22.9 IU/L | GPT, 12th week ([6]; analysis 1: 53 type 2 diabetes patients with fatty liver, 12 weeks oral, 0 week 77.2 ± 55.9): 44.0 ± 29.7 IU/L | GOT, change (0 to 12 weeks) [6, 7]: 24.7 ± 12.4 IU/L | GPT, change (0 to 12 weeks) [6, 7]: 33.2 ± 31.0 IU/L | Level of GOT after administration compared with before [6, 8]: statistically significant lowered | Level of GPT after administration compared with before [6, 8]: statistically significant lowered | GOT, 12th week ([6]; analysis 2: 16 cases of type-2 diabetes with liver disorders (GOT, GPT≧51 IU/L), 0 week 133.3 ± 51.3): 85.4 ± 40.9 IU/L | GPT, 12th week ([6]; analysis 2: 16 cases of type-2 diabetes with liver disorders (GOT, GPT≧51 IU/L), 0 week 217.3 ± 94.1): 80.2 ± 53.4 IU/L | GOT, change (0 to 12 weeks) [6, 9]: 47.8 ± 37.9 IU/L | GPT, change (0 to 12 weeks) [6, 9]: 137.0 ± 43.4 IU/L | GOT before vs after administration [6, 10]: statistically significant lowering | GPT before vs after administration [6, 10]: statistically significant lowering
